Read-outs that look alike come from different tables or passages of the source.
Legend:
[1] = reconstituted solutions of the lyophilised powder, cited from earlier work
[2] = in all the infusion fluids studied; cited from earlier work
[3] = aqueous solution of unlyophilised carboplatin in sterile water, at room temperature
Method: The solutions obtained were filled into amber moulded 20 ml vials and sealed with Teflon-lined caps, West 541. The above two solutions were stored at room temperature for 15 months, then tested for stability. […] The solution was filled into 20 ml amber moulded vials and sealed with grey chlorobutyl rubber caps. […] Each solution was filled into 6 ml clear drawn vials and sealed with Teflon lined caps.

Compound | stable (time) ([1]; at room temperature) [h] | stable (time) ([1]; under refrigeration) [h] | stable (time) [2] [h] | stable (time) [3]
[NH2][Pt]1([NH2])[O]C(=O)C2(CCC2)C(=O)[O]1 [carboplatin, cis-Diamine[1,1-cyclobutanedicarboxylato-(2-)-O,O′]platinum [SP-4-27]] | 8 | 24 | 24 | at least 18 months
iproplatin |  |  | 24 | 
